In US20260297085A1, “1 H-PYRROLO[2,3-B]PYRIDIN-4-YL]-2-OXOPYRROLIDINE-3-CARBONITRILE DERIVATIVES AS TYROSINE KINASE 2 (TYK2) INHIBITORS FOR THE TREATMENT OF INFLAMMATORY DISEASES” (BIOGEN MA INC., priority 2023, published 2026):
Counter-ions that a name gives are not always drawn.

How the values were obtained:
[1] = molecular target: T1, human TYK2 kinase domain (JH1) (Homo sapiens, UniProt P29597); experiment: JH1 biochemical assay for TYK2 (ADP-Glo kinase assay, recombinant JH1 catalytic domain, JAK3-974 peptide, 10 μM ATP)
T1 construct: recombinantly generated catalytic kinase (also known as JH1) domain of human JAK1, JAK2, JAK3 and TYK2
T1 sequence (P29597 897-1176 limits assumed): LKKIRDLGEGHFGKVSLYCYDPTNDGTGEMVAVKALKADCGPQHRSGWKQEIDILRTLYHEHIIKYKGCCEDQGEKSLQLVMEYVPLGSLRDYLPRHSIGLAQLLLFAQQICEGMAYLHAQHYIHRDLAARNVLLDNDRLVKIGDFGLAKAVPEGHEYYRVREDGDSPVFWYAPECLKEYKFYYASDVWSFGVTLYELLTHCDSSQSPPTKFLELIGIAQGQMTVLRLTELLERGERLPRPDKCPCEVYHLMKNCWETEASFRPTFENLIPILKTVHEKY
Procedure: (§1) Compounds of the disclosure were assessed for their ability to inhibit TYK2, JAK1, JAK2, and JAK3 activity. The inhibitory properties of the compounds of the disclosure described herein can be evidenced by testing in any one of the following protocols.
(§2) The kinase activity of recombinantly generated catalytic kinase (also known as JH1) domain of human JAK1, JAK2, JAK3 and TYK2 were evaluated in a plate-based assay using the ADP-Glo™ Kinase Assay platform. Specifically, 4 nM of recombinant JAK1 kinase domain is used to phosphorylate 50 μM of a JAK3-342 (sequence ALVDGYFRLTT) peptide in the presence of 35 μM ATP. Catalytic activities of recombinant JAK2, JAK3 and TYK2 kinase domain (0.2, 0.3 and 2 nM, respectively) are evaluated by the phosphorylation status of the JAK3-974 (50 μM; sequence LPLDKDYYVVR) peptide with the addition of ATP (15, 4 and 10 μM, respectively). The reactions proceed for 100 minutes and the catalytic activity is quantified by first depleting the unused ATP, converting the hydrolyzed ADP into ATP to generate luminescence in a luciferase reaction; which is the basis of the ADP-Glo platform. Compounds are tested at either 10 μM or 1 μM top concentration, 11 points of 3-fold dilution. The data is normalized and the percent activity versus log concentration of compound is fitted with a 4-parameter logistic model to generate a curve and an IC50 value.

[2] = molecular target: T2, human JAK1 kinase domain (JH1) (Homo sapiens, UniProt P23458); experiment: JH1 biochemical assay for JAK1 (ADP-Glo kinase assay, recombinant JH1 catalytic domain, JAK3-342 peptide, 35 μM ATP)
T2 construct: recombinantly generated catalytic kinase (also known as JH1) domain of human JAK1, JAK2, JAK3 and TYK2
Procedure: as §1, §2

[3] = molecular target: T3, human JAK2 kinase domain (JH1) (Homo sapiens, UniProt O60674); experiment: JH1 biochemical assay for JAK2 (ADP-Glo kinase assay, recombinant JH1 catalytic domain, JAK3-974 peptide, 15 μM ATP)
T3 construct: recombinantly generated catalytic kinase (also known as JH1) domain of human JAK1, JAK2, JAK3 and TYK2
Procedure: as §1, §2

[4] = molecular target: T4, human JAK3 kinase domain (JH1) (Homo sapiens, UniProt P52333); experiment: JH1 biochemical assay for JAK3 (ADP-Glo kinase assay, recombinant JH1 catalytic domain, JAK3-974 peptide, 4 μM ATP)
T4 construct: recombinantly generated catalytic kinase (also known as JH1) domain of human JAK1, JAK2, JAK3 and TYK2
Procedure: as §1, §2

T3 sequence (O60674 849-1124 limits assumed): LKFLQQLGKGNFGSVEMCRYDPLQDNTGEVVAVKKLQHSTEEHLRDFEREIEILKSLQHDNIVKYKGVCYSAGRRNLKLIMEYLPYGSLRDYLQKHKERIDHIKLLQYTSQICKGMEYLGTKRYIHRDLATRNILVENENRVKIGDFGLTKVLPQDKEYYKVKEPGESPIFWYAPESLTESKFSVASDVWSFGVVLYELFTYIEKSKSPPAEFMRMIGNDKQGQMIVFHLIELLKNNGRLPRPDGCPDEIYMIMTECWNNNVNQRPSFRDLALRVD
T4 sequence (P52333 822-1111 limits assumed): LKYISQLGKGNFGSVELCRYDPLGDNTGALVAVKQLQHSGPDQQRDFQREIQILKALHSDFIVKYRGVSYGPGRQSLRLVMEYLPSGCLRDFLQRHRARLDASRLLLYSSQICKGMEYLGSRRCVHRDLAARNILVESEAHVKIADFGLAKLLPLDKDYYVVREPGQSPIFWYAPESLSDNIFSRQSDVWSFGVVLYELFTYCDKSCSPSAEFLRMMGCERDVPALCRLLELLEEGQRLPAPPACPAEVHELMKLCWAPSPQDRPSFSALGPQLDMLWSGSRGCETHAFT
T2 sequence (P23458 875-1153 limits assumed): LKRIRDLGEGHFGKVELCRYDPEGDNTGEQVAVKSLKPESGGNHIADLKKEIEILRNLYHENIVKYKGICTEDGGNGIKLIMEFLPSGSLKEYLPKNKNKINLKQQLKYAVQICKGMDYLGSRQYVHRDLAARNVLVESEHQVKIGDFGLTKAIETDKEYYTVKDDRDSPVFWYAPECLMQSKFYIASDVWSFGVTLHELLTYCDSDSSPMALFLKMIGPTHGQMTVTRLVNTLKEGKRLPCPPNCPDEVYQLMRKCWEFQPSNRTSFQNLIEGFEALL

SMILES	IC50 ([1]; JH1 kinase domain, ADP-Glo)	IC50 ([2]; JH1 kinase domain, ADP-Glo)	IC50 ([3]; JH1 kinase domain, ADP-Glo)	IC50 ([4]; JH1 kinase domain, ADP-Glo)	IC50 ([1]; TYK2 JH1, ADP-Glo)	IC50 ([2]; JAK1 JH1, ADP-Glo)	IC50 ([3]; JAK2 JH1, ADP-Glo)	IC50 ([4]; JAK3 JH1, ADP-Glo)
C[C@@H]1CN(c2ccnn3cc(-c4cc(C(F)(F)F)nn4C)cc23)C(=O)[C@]1(C#N)C1CC1 [Example 107, (3R,4S)-3-cyclopropyl-4-methyl-1-(6-(1-methyl-3-(trifluoromethyl)-1H-pyrazol-5-yl)pyrrolo[1,2-b]pyridazin-4-yl)-2-oxopyrrolidine-3-carbonitrile trifluoroacetate]	20 to 50 nM	1 to 5 µM	1 to 5 µM	1 to 5 µM				
C[C@@H]1CN(c2ccnn3cc(-c4cnc5n4CCCC5)cc23)C(=O)[C@]1(C#N)C1CC1 [Example 100, (3R,4S)-3-cyclopropyl-4-methyl-2-oxo-1-(6-(5,6,7,8-tetrahydroimidazo[1,2-a]pyridin-3-yl)pyrrolo[1,2-b]pyridazin-4-yl)pyrrolidine-3-carbonitrile trifluoroacetate]	50 to 100 nM	1 to 5 µM	1 to 5 µM	1 to 5 µM				
CC[C@@]1(C#N)CCN(c2ccnn3cc(-c4cnn(C)c4)cc23)C1=O (single isomer, unassigned) [Example 43]	> 100 nM	> 10 µM	> 10 µM	> 10 µM				
C[C@H]1CN(c2ccnn3cc(-c4cnn(C)c4)cc23)C(=O)[C@@]1(C#N)C1CC1 [Example 29, (3S,4R)-3-cyclopropyl-4-methyl-1-(6-(1-methyl-1H-pyrazol-4-yl)pyrrolo[1,2-b]pyridazin-4-yl)-2-oxopyrrolidine-3-carbonitrile]	> 100 nM	> 10 µM	> 10 µM	> 10 µM				
C[C@@H]1CN(c2nc(-c3cncc(F)c3)cn3nccc23)C(=O)[C@]1(C#N)C1CC1 [Example 246, (3R,4S)-3-cyclopropyl-1-(6-(5-fluoropyridin-3-yl)pyrazolo[1,5-a]pyrazin-4-yl)-4-methyl-2-oxopyrrolidine-3-carbonitrile trifluoroacetate]					5 to 20 nM	0.1 to 1 µM	0.1 to 1 µM	0.1 to 1 µM
Cn1cc(-c2cc3c(N4CC[C@@](C#N)(C5COC5)C4=O)ccnn3c2)cn1 (single isomer, unassigned) [Example 45]	> 100 nM	> 10 µM	> 10 µM	> 10 µM				
C[C@@H]1CN(c2nc(-c3ccnn3C)cn3nccc23)C(=O)[C@]1(C#N)C1CC1 [Example 254, (3R,4S)-3-cyclopropyl-4-methyl-1-(6-(1-methyl-1H-pyrazol-5-yl)pyrazolo[1,5-a]pyrazin-4-yl)-2-oxopyrrolidine-3-carbonitrile trifluoroacetate]					20 to 50 nM	0.1 to 1 µM	0.1 to 1 µM	0.1 to 1 µM
C[C@@H]1CN(c2ccnn3cc(-c4nccn5ccnc45)cc23)C(=O)[C@]1(C#N)C1CC1 [Example 123, (3R,4S)-3-cyclopropyl-1-(6-(imidazo[1,2-a]pyrazin-8-yl)pyrrolo[1,2-b]pyridazin-4-yl)-4-methyl-2-oxopyrrolidine-3-carbonitrile trifluoroacetate]	> 100 nM	> 10 µM	> 10 µM	> 10 µM				
C[C@@H]1C[C@@](C#N)(C2CC2)C(=O)N1c1ccnn2cc(-c3cnn(C)c3)cc12 [Example 17, (3S,5R)-3-cyclopropyl-5-methyl-1-(6-(1-methyl-1H-pyrazol-4-yl)pyrrolo[1,2-b]pyridazin-4-yl)-2-oxopyrrolidine-3-carbonitrile]	> 100 nM	1 to 5 µM	0.1 to 1 µM	5 to 10 µM				
C[C@@H]1CN(c2nc(-c3ccn(C)n3)cn3nccc23)C(=O)[C@]1(C#N)C1CC1 [Example 229, (3R,4S)-3-cyclopropyl-4-methyl-1-(6-(1-methyl-1H-pyrazol-3-yl)pyrazolo[1,5-a]pyrazin-4-yl)-2-oxopyrrolidine-3-carbonitrile trifluoroacetate]					> 100 nM	1 to 5 µM	> 10 µM	1 to 5 µM
C[C@@H]1CN(c2n[nH]c3ncc(-c4cnn(C)c4)cc23)C(=O)[C@]1(C#N)C1CC1 [Example 274, (3R,4S)-3-cyclopropyl-4-methyl-1-(5-(1-methyl-1H-pyrazol-4-yl)-1H-pyrazolo[3,4-b]pyridin-3-yl)-2-oxopyrrolidine-3-carbonitrile]					> 100 nM	> 10 µM	0.1 to 1 µM	> 10 µM
C[C@@H]1CN(c2ccnn3cc(-c4ncccc4O)cc23)C(=O)[C@]1(C#N)C1CC1 [Example 149, (3R,4S)-3-cyclopropyl-1-(6-(3-hydroxypyridin-2-yl)pyrrolo[1,2-b]pyridazin-4-yl)-4-methyl-2-oxopyrrolidine-3-carbonitrile trifluoroacetate]	20 to 50 nM	1 to 5 µM	5 to 10 µM	1 to 5 µM				
C[C@@H]1CN(c2cc(-c3cnn(C)c3)cc3ncnn23)C(=O)[C@]1(C#N)C1CC1 [Example 285, (3R,4S)-3-cyclopropyl-4-methyl-1-(7-(1-methyl-1H-pyrazol-4-yl)-[1,2,4]triazolo[1,5-a]pyridin-5-yl)-2-oxopyrrolidine-3-carbonitrile]					> 100 nM	> 10 µM	> 10 µM	> 10 µM
CC[C@H]1C[C@@](C#N)(C2CC2)C(=O)N1c1ccnn2cc(C3=NC(C)N=C3)cc12 (stereo partly drawn) [Example 19, (3S,5S)-3-cyclopropyl-5-ethyl-1-(6-(2-methyl-2H-imidazol-4-yl)pyrrolo[1,2-b]pyridazin-4-yl)-2-oxopyrrolidine-3-carbonitrile]	> 100 nM	> 10 µM	> 10 µM	> 10 µM				
COc1ncc(-c2cc3c(N4C[C@@H](C)[C@@](C#N)(C5CC5)C4=O)ccnn3c2)cn1 [Example 76, (3R,4S)-3-cyclopropyl-1-(6-(2-methoxypyrimidin-5-yl)pyrrolo[1,2-b]pyridazin-4-yl)-4-methyl-2-oxopyrrolidine-3-carbonitrile]	50 to 100 nM	0.1 to 1 µM	1 to 5 µM	1 to 5 µM				
Cn1cc(-c2cc3c(N4CC[C@@](C)(C#N)C4=O)ccnn3c2)cn1 (single isomer, unassigned) [Example 38]	50 to 100 nM	1 to 5 µM	1 to 5 µM	1 to 5 µM				
CC[C@]1(C#N)CCN(c2ccnn3cc(-c4cnn(C)c4)cc23)C1=O (single isomer, unassigned) [Example 42]	50 to 100 nM	1 to 5 µM	1 to 5 µM	1 to 5 µM				
CC[C@@H]1C[C@](C#N)(C2CC2)C(=O)N1c1ccnn2cc(-c3cnn(C)c3)cc12 [Example 33, (3R,5R)-3-cyclopropyl-5-ethyl-1-(6-(1-methyl-1H-pyrazol-4-yl)pyrrolo[1,2-b]pyridazin-4-yl)-2-oxopyrrolidine-3-carbonitrile]	> 100 nM	5 to 10 µM	1 to 5 µM	5 to 10 µM				
C[C@@H]1CN(c2ccnn3cc(-c4ncccn4)cc23)C(=O)[C@]1(C#N)C1CC1 [Example 139, ((3R,4S)-3-cyclopropyl-4-methyl-2-oxo-1-(6-(pyrimidin-2-yl)pyrrolo[1,2-b]pyridazin-4-yl)pyrrolidine-3-carbonitrile trifluoroacetate]	> 100 nM	1 to 5 µM	> 10 µM	1 to 5 µM				
Cc1ncc(-c2cc3c(N4C[C@@H](C)[C@@](C#N)(C5CC5)C4=O)ccnn3c2)cn1 [Example 80, (3R,4S)-3-cyclopropyl-4-methyl-1-(6-(2-methylpyrimidin-5-yl)pyrrolo[1,2-b]pyridazin-4-yl)-2-oxopyrrolidine-3-carbonitrile]	50 to 100 nM	1 to 5 µM	1 to 5 µM	1 to 5 µM				
C[C@@H]1CN(c2ccnn3cc(-c4cnccc4C(F)(F)F)cc23)C(=O)[C@]1(C#N)C1CC1 [Example 179, (3R,4S)-3-cyclopropyl-4-methyl-2-oxo-1-(6-(4-(trifluoromethyl)pyridin-3-yl)pyrrolo[1,2-b]pyridazin-4-yl)pyrrolidine-3-carbonitrile]	> 100 nM	> 10 µM	> 10 µM	> 10 µM				
C[C@@H]1CN(c2ccnn3cc(-c4nc5ccccn5n4)cc23)C(=O)[C@]1(C#N)C1CC1 [Example 108, (3R,4S)-1-(6-([1,2,4]triazolo[1,5-a]pyridin-2-yl)pyrrolo[1,2-b]pyridazin-4-yl)-3-cyclopropyl-4-methyl-2-oxopyrrolidine-3-carbonitrile trifluoroacetate]	50 to 100 nM	1 to 5 µM	> 10 µM	1 to 5 µM				
